Data as given in patent US20030232906A1, “Stabilized coating compositions containing isothiazolone” (priority 2002, published 2003).
Like-named read-outs stand apart in the source and are kept apart here.

Type: physicochemical
Conditions: for retention of 2-n-octyl-3-isothiazolone active ingredient after 14 days: 1% solution in 95% propylene glycol/5% water, pH 10.0-10.1 (NaOH), no metal salt stabilizers
Method: A 2-n-octyl-3-isothiazolone solution (1%) was prepared in 95% propylene glycol/5% water and the pH was adjusted to 10.0-10.1 with NaOH; no metal salt stabilizers were added to the mixture. Samples of this mixture were then stored at ambient temperature (approximately 25° C.) and also in an oven at 40° C. After 14 days, there was no loss of 2-n-octyl-3-isothiazolone active ingredient (100% retention) for samples stored at either 25° C. or 40° C.

CCCCCCCCn1sccc1=O [2-n-octyl-3-isothiazolone, 2-n-Octyl-3-isothiazolone]
stability at high pH in the absence of amines (in words): stable | retention of 2-n-octyl-3-isothiazolone active ingredient after 14 days (40° C.): 100% | retention of 2-n-octyl-3-isothiazolone active ingredient after 14 days (approx. 25° C.): 100%
